From US11370774B2, “Substituted benzofuran, benzopyrrole, benzothiophene, and structurally related complement inhibitors” (BioCryst Pharmaceuticals, Inc., priority 2018, dated 2022)

Each molecule was assayed against Factor D (Homo sapiens (Human), UniProt P00746) (assay: Factor D esterolytic assay (Z-Lys-SBzl substrate, DTNB, 405 nm)). Settings: Z-Lys-SBzl 1.29 mM, pH 7.5, 10% DMSO, tested a minimum of three times, read-out: Measured Ki (IC50) Value for Compounds: IC50.
Type: biochemical
Method in brief: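 Thioester hydrolysis (Z-Lys-SBzl, 1.29 mM) by human Factor D ([…]) detected through DTNB color at 405 nm over 600 sec, minus 690 nm background. Buffer: 100 mM HEPES pH 7.5, 500 mM NaCl, 10% DMSO; optional room-temperature preincubation before substrate. IC50 derived from percent rate inhibition; at least three runs.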

Factor D, sequence (P00746 26-253): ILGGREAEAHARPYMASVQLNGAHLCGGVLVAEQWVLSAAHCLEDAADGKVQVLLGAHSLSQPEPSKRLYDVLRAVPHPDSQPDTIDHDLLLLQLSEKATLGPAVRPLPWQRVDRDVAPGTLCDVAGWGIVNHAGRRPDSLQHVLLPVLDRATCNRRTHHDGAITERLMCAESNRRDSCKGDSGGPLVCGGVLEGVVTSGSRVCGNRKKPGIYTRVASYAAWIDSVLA

IC50, < 1000 nM:
NCc1cccc(-c2c(F)c(COc3ccccc3CC(=O)O)cc3ccoc23)c1F [Compound 516c, 2-(2-((7-(3-(aminomethyl)-2-fluorophenyl)-6-fluorobenzofuran-5-yl)methoxy)phenyl)acetic acid]
NCc1cccc(-c2cc(COc3ccccc3CC(=O)O)cc3c2ccn3C(F)(F)F)c1 [Compound 517d, 2-(2-((4-(3-(aminomethyl)phenyl)-1-(trifluoromethyl)-1H-indol-6-yl)methoxy)phenyl)acetic acid]
NCc1cccc(-c2cc(COc3ccccc3CC(=O)O)cc3c2ccn3C(F)(F)F)c1F [Compound 518b, 2-(2-((4-(3-(aminomethyl)-2-fluorophenyl)-1-(trifluoromethyl)-1H-indol-6-yl)methoxy)phenyl)acetic acid]
NCc1cc(-c2c(F)c(COc3ccccc3CC(=O)O)cc3ccoc23)ccn1 [Compound 519c, 2-(2-((7-(2-(aminomethyl)pyridin-4-yl)-6-fluorobenzofuran-5-yl)methoxy)phenyl)acetic acid]
NCc1cccc(-c2cc(COc3cc(F)ccc3CC(=O)O)cc3cc(F)oc23)c1 [Compound 520c, 2-(2-((7-(3-(aminomethyl)phenyl)-2-fluorobenzofuran-5-yl)methoxy)-4-fluorophenyl)acetic acid]
NCc1cccc(-c2cc(COc3cc(F)ccc3CC(=O)O)cc3cc(F)oc23)c1F [Compound 521b, 2-(2-((7-(3-(aminomethyl)-2-fluorophenyl)-2-fluorobenzofuran-5-yl)methoxy)-4-fluorophenyl)acetic acid]
NCc1nccc(-c2cc(COc3cc(F)ccc3CC(=O)O)cc3cc(F)oc23)c1F [Compound 522c, 2-(2-((7-(2-(aminomethyl)-3-fluoropyridin-4-yl)-2-fluorobenzofuran-5-yl)methoxy)-4-fluorophenyl)acetic acid]
NCc1cc(-c2cc(COc3cc(F)ccc3CC(=O)O)cc3cc(F)oc23)ccn1 [Compound 523b, 2-(2-((7-(2-(aminomethyl)pyridin-4-yl)-2-fluorobenzofuran-5-yl)methoxy)-4-fluorophenyl)acetic acid]
Cc1ccc(CC(=O)O)c(OCc2cc(-c3cccc(CN)c3F)c3oc(F)cc3c2)c1 [Compound 524b, 2-(2-((7-(3-(aminomethyl)-2-fluorophenyl)-2-fluorobenzofuran-5-yl)methoxy)-4-methylphenyl)acetic acid]
Cc1ccc(CC(=O)O)c(OCc2cc(-c3ccnc(CN)c3F)c3oc(F)cc3c2)c1 [Compound 525c, 2-(2-((7-(2-(aminomethyl)-3-fluoropyridin-4-yl)-2-fluorobenzofuran-5-yl)methoxy)-4-methylphenyl)acetic acid]
Cc1ccc(CC(=O)O)c(OCc2cc(-c3ccnc(CN)c3)c3oc(F)cc3c2)c1 [Compound 526b, 2-(2-((7-(2-(aminomethyl)pyridin-4-yl)-2-fluorobenzofuran-5-yl)methoxy)-4-methylphenyl)acetic acid]
COc1cccc(CC(=O)O)c1OCc1cc(-c2ccnc(CN)c2F)c2occc2c1 [Compound 527b, 2-(2-((7-(2-(aminomethyl)-3-fluoropyridin-4-yl)benzofuran-5-yl)methoxy)-3-methoxyphenyl)acetic acid]
COCc1cc2cc(COc3ccc(F)cc3CC(=O)O)cc(-c3ccnc(CN)c3F)c2o1 [Compound 528d]
COCc1cc2cc(COc3ccc(F)cc3CC(=O)O)cc(-c3ccnc(CN)c3)c2o1 [Compound 529b, 2-(2-((7-(2-(aminomethyl)pyridin-4-yl)-2-(methoxymethyl)benzofuran-5-yl)methoxy)-5-fluorophenyl)acetic acid]
COCc1cc2cc(COc3cc(C(C)=O)ccc3CC(=O)O)cc(-c3ccnc(CN)c3F)c2o1 [Compound 530c, 2-(4-acetyl-2-((7-(2-(aminomethyl)-3-fluoropyridin-4-yl)-2-(methoxymethyl)benzofuran-5-yl)methoxy)phenyl)acetic acid]
NCc1nccc(-c2c(F)c(COc3ccccc3CC(=O)O)cc3ccoc23)c1F [Compound 531c, 2-(2-((7-(2-(aminomethyl)-3-fluoropyridin-4-yl)-6-fluorobenzofuran-5-yl)methoxy)phenyl)acetic acid]
NCc1cc(-c2cc(COc3ccccc3CC(=O)O)cc3c2ccn3C(F)(F)F)ccn1 [Compound 532d, 2-(2-((4-(2-(aminomethyl)pyridin-4-yl)-1-(trifluoromethyl)-1H-indol-6-yl)methoxy)phenyl)acetic acid]
NCc1nccc(-c2cc(COc3ccccc3CC(=O)O)cc3c2ccn3C(F)(F)F)c1F [Compound 533c, 2-(2-((4-(2-(aminomethyl)-3-fluoropyridin-4-yl)-1-(trifluoromethyl)-1H-indol-6-yl)methoxy)phenyl)acetic acid]
